Data taken from patent publication US6737383B1, “Herbicidal oxadiazolidines” (priority 1999, dated 2004).

Tests used:
[1] = tested on: soybean; assay: Test B pre/postemergence soybean; assay type: in vivo, Glycine max
Procedure, shortened: (§1)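 Herbicidal effect was estimated by eye on a ten-point control scale after plants spent twelve to sixteen days in a greenhouse following soil or foliar treatment. Foliar sprays targeted plants at one to four leaves; all doses were formulated in a non-phytotoxic solvent with surfactant.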

[2] = tested on: corn; assay: Test B pre/postemergence corn; assay type: in vivo, Zea mays
Procedure, shortened: as §1

[3] = tested on: purple nutsedge; assay: Test B pre/postemergence purple nutsedge; assay type: in vivo, Cyperus rotundus
Procedure, shortened: as §1

[4] = tested on: rice; assay: Test B flood test rice; assay type: in vivo, Oryza sativa
Procedure, shortened: (§2)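 Read-out is a visual response score from 0 (no effect) to 10 (complete control), assigned by comparison with untreated controls. Treatment was applied at the 2-leaf stage, and plants stayed in the greenhouse for twelve to sixteen days before scoring.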

[5] = tested on: cocklebur; assay: Test B pre/postemergence cocklebur; assay type: in vivo, Xanthium strumarium; conditions: for Cocklebur plant response rating: Postemergence; for Plant response rating, Cocklebur: Preemergence
Procedure, shortened: as §1

[6] = tested on: crabgrass; assay: Test B pre/postemergence crabgrass; assay type: in vivo, Digitaria sanguinalis
Procedure, shortened: as §1

[7] = tested on: bamyardgrass; assay: Test B flood test barnyardgrass; assay type: in vivo, Echinochloa crus-galli
Procedure, shortened: as §2

[8] = tested on: pigweed; assay: Test B pre/postemergence pigweed; assay type: in vivo, Amaranthus retroflexus
Procedure, shortened: as §1

[9] = tested on: duck salad; assay: Test B flood test duck salad; assay type: in vivo, Heteranthera limosa
Procedure, shortened: as §2

[10] = tested on: smallflower flatsedge; assay: Test B flood test smallflower flatsedge; assay type: in vivo, Cyperus difformis
Procedure, shortened: as §2

[11] = tested on: surinam grass; assay: Test B pre/postemergence surinam grass; assay type: in vivo, Brachiaria decumbens
Procedure, shortened: as §1

[12] = tested on: sugar beet; assay: Test B pre/postemergence sugar beet; assay type: in vivo, Beta vulgaris
Procedure, shortened: as §1

[13] = tested on: wild oat; assay: Test B pre/postemergence wild oat; assay type: in vivo, Avena fatua
Procedure, shortened: as §1

[14] = tested on: rape; assay: Test B pre/postemergence rape; assay type: in vivo, Brassica napus
Procedure, shortened: as §1

[15] = tested on: giant foxtail; assay: Test B pre/postemergence giant foxtail; assay type: in vivo, Setaria faberii
Procedure, shortened: as §1

[16] = tested on: morningglory; assay: Test B pre/postemergence morningglory; assay type: in vivo, Ipomoea hederacea
Procedure, shortened: as §1

[17] = Postemergence, Rate 62 g/ha, scale 0 to 10, 0 is no effect, 10 is complete control
[18] = Postemergence, Rate 250 g/ha, scale 0 to 10, 0 no effect, 10 complete control
[19] = Preemergence, Rate 62 g/ha, scale 0 to 10, 0 is no effect, 10 is complete control
[20] = Preemergence, Rate 125 g/ha, scale 0 to 10 (0 no effect, 10 complete control)
[21] = Preemergence, Rate 250 g/ha, scale of 0 to 10 where 0 is no effect and 10 is complete control
[22] = Preemergence, Rate 500 g/ha, scale 0 (no effect) to 10 (complete control)
[23] = Rate 125 g/ha, Postemergence, scale 0 to 10, 0 no effect, 10 complete control
[24] = Rate 500 g/ha, Postemergence, 0 to 10 scale (0 no effect, 10 complete control)
[25] = Rate 125 g/ha, Postemergence section (flood test species), scale 0 to 10, 0 no effect, 10 complete control
[26] = Rate 500 g/ha, Postemergence section of Table B, 0 to 10 scale (0 no effect, 10 complete control)
[27] = flood test, listed under Postemergence, Rate 250 g/ha, scale 0 to 10, 0 no effect, 10 complete control
[28] = Rate 62 g/ha, scale 0 to 10, 0 is no effect, 10 is complete control

Cc1ccc(-n2c(=O)on(C(=O)N(c3ccc(F)cc3F)C(C)C)c2=O)c(C)c1 [Compound 24] was tested, and the “Soybean plant response rating” value [1, 17] was 3, the “Soybean plant response rating” value [1, 18] was 3 and the “Plant response rating, Soybean” value [1, 19] was 0. For the same molecule, the “Plant response rating, Soybean” value [1, 20] was 0, the “Plant response rating, Soybean” value [1, 21] was 0 and the “Soybean plant response rating” value [1, 22] was 2. The “Soybean plant response rating” value [1, 23] was 3, the “Corn plant response rating” value [2, 17] was 0 and the “Corn plant response rating” value [2, 18] was 0. The “Plant response rating, Corn” value [2, 19] was 0, the “Plant response rating, Corn” value [2, 20] was 0 and the “Plant response rating, Corn” value [2, 21] was 0. The “Corn plant response rating” value [2, 22] was 0, the “Corn plant response rating” value [2, 23] was 0 and the “Corn plant response rating” value [2, 24] was 0. The “Nutsedge plant response rating” value [3, 17] was 0, the “Nutsedge plant response rating” value [3, 18] was 0 and the “Plant response rating, Nutsedge” value [3, 19] was 0. For the same molecule, the “Plant response rating, Nutsedge” value [3, 20] was 0, the “Plant response rating, Nutsedge” value [3, 21] was 0 and the “Nutsedge plant response rating” value [3, 22] was 0. The “Nutsedge plant response rating” value [3, 23] was 0, the “Nutsedge plant response rating” value [3, 24] was 0 and the “Rice plant response rating” value [4, 17] was 0. For the same molecule, the “Rice plant response rating” value [4, 25] was 0, the “Rice plant response rating” value [4, 26] was 0 and the “Rice plant response rating” value [4, 27] was 0. The “Cocklebur plant response rating” value [5, 28] was 0, the “Cocklebur plant response rating” value ([5]; Rate 250 g/ha, scale 0 to 10, 0 no effect, 10 complete control) was 1 and the “Plant response rating, Cocklebur” value [5, 28] was 0. The “Plant response rating, Cocklebur” value ([5]; Rate 125 g/ha, scale 0 to 10 (0 no effect, 10 complete control)) was 0, the “Plant response rating, Cocklebur” value ([5]; Rate 250 g/ha, scale of 0 to 10 where 0 is no effect and 10 is complete control) was 0 and the “Cocklebur plant response rating” value ([5]; Rate 125 g/ha, scale 0 to 10, 0 no effect, 10 complete control) was 0. For the same molecule, the “Cocklebur plant response rating” value ([5]; Rate 500 g/ha, 0 to 10 scale (0 no effect, 10 complete control)) was 2, the “Crabgrass plant response rating” value [6, 17] was 2 and the “Crabgrass plant response rating” value [6, 18] was 9. For the same molecule, the “Plant response rating, Crabgrass” value [6, 19] was 0, the “Plant response rating, Crabgrass” value [6, 20] was 6 and the “Plant response rating, Crabgrass” value [6, 21] was 9. The “Crabgrass plant response rating” value [6, 22] was 10, the “Crabgrass plant response rating” value [6, 23] was 8 and the “Crabgrass plant response rating” value [6, 24] was 10. The “Barnyardgrass plant response rating” value [7, 17] was 0, the “Barnyardgrass plant response rating” value [7, 25] was 0 and the “Barnyardgrass plant response rating” value [7, 26] was 8. For the same molecule, the “Barnyardgrass plant response rating” value [7, 27] was 0, the “Redroot pigweed plant response rating” value [8, 17] was 0 and the “Redroot pigweed plant response rating” value [8, 18] was 6. For the same molecule, the “Plant response rating, Redroot pigweed” value [8, 19] was 2, the “Plant response rating, Redroot pigweed” value [8, 20] was 6 and the “Plant response rating, Redroot pigweed” value [8, 21] was 6. The “Redroot pigweed plant response rating” value [8, 22] was 9, the “Redroot pigweed plant response rating” value [8, 23] was 2 and the “Redroot pigweed plant response rating” value [8, 24] was 6. For the same molecule, the “Ducksalad plant response rating” value [9, 17] was 0, the “Ducksalad plant response rating” value [9, 25] was 0 and the “Ducksalad plant response rating” value [9, 26] was 0. The “Ducksalad plant response rating” value [9, 27] was 0, the “S. Flatsedge plant response rating” value [10, 17] was 0 and the “S. Flatsedge plant response rating” value [10, 25] was 0. For the same molecule, the “S. Flatsedge plant response rating” value [10, 27] was 0, the “B. signalgrass plant response rating” value [11, 17] was 0 and the “B. signalgrass plant response rating” value [11, 18] was 3. For the same molecule, the “Plant response rating, B. signalgrass” value [11, 19] was 0, the “Plant response rating, B. signalgrass” value [11, 20] was 4 and the “Plant response rating, B. signalgrass” value [11, 21] was 4. The “B. signalgrass plant response rating” value [11, 22] was 6, the “B. signalgrass plant response rating” value [11, 23] was 3 and the “B. signalgrass plant response rating” value [11, 24] was 3. For the same molecule, the “Sugarbeets plant response rating” value [12, 17] was 0, the “Sugarbeets plant response rating” value [12, 18] was 0 and the “Plant response rating, Sugarbeets” value [12, 19] was 0. For the same molecule, the “Plant response rating, Sugarbeets” value [12, 20] was 3, the “Plant response rating, Sugarbeets” value [12, 21] was 4 and the “Sugarbeets plant response rating” value [12, 22] was 9. For the same molecule, the “Sugarbeets plant response rating” value [12, 23] was 0, the “Wild oats plant response rating” value [13, 17] was 0 and the “Wild oats plant response rating” value [13, 18] was 0. The “Plant response rating, Wild oats” value [13, 20] was 0, the “Plant response rating, Wild oats” value [13, 21] was 0 and the “Wild oats plant response rating” value [13, 22] was 2. For the same molecule, the “Wild oats plant response rating” value [13, 23] was 0, the “Rape plant response rating” value [14, 17] was 0 and the “Rape plant response rating” value [14, 18] was 0. The “Plant response rating, Rape” value [14, 19] was 0, the “Plant response rating, Rape” value [14, 20] was 0 and the “Plant response rating, Rape” value [14, 21] was 0. The “Rape plant response rating” value [14, 22] was 1, the “Rape plant response rating” value [14, 23] was 0 and the “Rape plant response rating” value [14, 24] was 2. The “Giant foxtail plant response rating” value [15, 17] was 0, the “Giant foxtail plant response rating” value [15, 18] was 3 and the “Plant response rating, Giant foxtail” value [15, 19] was 6. The “Plant response rating, Giant foxtail” value [15, 20] was 7, the “Plant response rating, Giant foxtail” value [15, 21] was 9 and the “Giant foxtail plant response rating” value [15, 22] was 9. The “Giant foxtail plant response rating” value [15, 23] was 2, the “Giant foxtail plant response rating” value [15, 24] was 8 and the “Morningglory plant response rating” value [16, 17] was 9. The “Morningglory plant response rating” value [16, 18] was 10, the “Plant response rating, Morningglory” value [16, 19] was 0 and the “Plant response rating, Morningglory” value [16, 20] was 0. The “Plant response rating, Morningglory” value [16, 21] was 0, the “Morningglory plant response rating” value [16, 22] was 0 and the “Morningglory plant response rating” value [16, 23] was 9.
